What all share (assay type): cell-based
For one assay, the system named is TNF-α. Put plainly: In vitro efficacy in semi-activated LX2 cells, qPCR: TNF-α. Particulars: Q-PCR; for inhibition at 50 µM: Homo sapiens, LX-2, 48 hours, read-out: TNF-α mRNA inhibition rate. As for the experimental part:
(§1) Test compounds were added to the LX-2 cells respectively, and total RNA in the cells was extracted 48 hours later. This experiment was performed strictly in accordance with the instructions of the Total RNA Kit. The steps were as follows (note: this experiment was performed on ice throughout the entire process, and special RNase-free tips were used throughout the entire process): • 1) The 12-well cell culture plate was taken out from the incubator, the cell culture medium was discarded, the cells were washed twice with 1 mL of 1×PBS, and a negative pressure suction device was used to fully remove PBS; • 2) 350 μL of TRK Lysis Buffer mixture/well was prepared as needed (mixture preparation method: 1 mL of TRKLysis Buffer+20 μL of β-mercaptoethanol), vortexed and mixed well. 350 μL was added to each well of the 12-well cell culture plate, and allowed to stand at room temperature for 5 minutes to fully lyse the cells; • 3) 70% ethanol/well was prepared as needed, vortexed and mixed well. 350 μL was added to each well of the 12-well cell culture plate, mixed well by shaking, and transferred to the spin column (spin column+collection tube were assembled); • 4) Centrifugation was performed at 4° C., 12000 g for 60 sec. The waste liquid was discarded after centrifugation, while the spin column was kept; • 5) 500 μL of RNA Wash Buffer I was added, centrifuged at 4° C., 12000 g for 60 sec, the waste liquid was discarded after centrifugation, and the collection column was kept; • 6) 500 μL of RNA Wash Buffer II (confirmed that ethanol had been added) was added, centrifuged at 4° C., 12000 g for 60 sec, the waste liquid was discarded after centrifugation, and the collection column was kept; • 7) step 6) was repeated once again, centrifugation was performed at 4° C., 12000 g for 90 sec, the waste liquid was discarded after centrifugation, and the collection column was kept; • 8) Centrifugation was performed at 4° C., 12000 g for 120 sec to ensure that the spin column was fully dried; • 9) The dried spin column was inserted into a new 1.5 mL EP tube, and 30 μL of DEPC water was added to the membrane in the center of the spin column. It should be careful not to touch the EP tube cover in this step. It was allowed to stand at room temperature for 5 minutes to ensure that the RNA was fully dissolved in DEPC water. Centrifugation was performed at 4° C., 12000 g for 60 sec, and the EP tube was kept; • 10) NanoDrop ultra-micro-volume spectrophotometer was used to detect RNA concentration;
(§2) 5.2 Reverse transcription of RNA into cDNA: According to the instructions of PrimeScript™ RT reagent Kit (Perfect Real Time), the specific experimental steps were as follows:
(§3) 5.3 Q-PCR detection of target gene expression: According to the instructions of Power SYBR® Green PCR Master Mix, the specific operations were as follows:
(§4) After the reaction was completed, the amplification curve and dissolution curve of Q-PCR were confirmed, and the relative quantification method ([…]) was used to perform data analysis on the experimental results.
(§5) LX2 cells were passaged and plated normally. After adherent growth for 12 hours, 50 µM of the test compound was added. After 48 hours, the cells were collected, total RNA was extracted, and Q-PCR was used to detect the changes in the mRNA expression levels of liver fibrosis-related genes (ACTA2 encoding α-SMA, COL1A1 and COLIA2 encoding collagen I, COL3A1 encoding collagen III, SMAD3 encoding Smad3) and inflammation-related genes (IL1β encoding IL-1β, TNFα encoding TNFα) (for specific methods, see 5. Q-PCR detection of target gene expression as described above). α-SMA was a marker of hepatic stellate cell activation, and collagen I and collagen III were the main components of extracellular matrix deposition.
For orientation: Real-time PCR tracks product formation cycle by cycle.

Assay [1] has as its system collagen I and collagen III. Put plainly: Semi-activated LX2 cells, qPCR: collagen I and collagen III at the mRNA level. Particulars: 48 hours, Q-PCR, Table 2. The protocol: as §1, §3
as §5, with “deposition. […]” for “deposition.”

The test system of a further assay is Smad3. Nature of the assay: In vitro efficacy in semi-activated LX2 cells, qPCR: Smad3. The conditions noted are these: 48 hours, Q-PCR; for inhibition at 50 µM: Homo sapiens, LX-2, 50 µM, read-out: Smad3 mRNA inhibition rate. As for the experimental part:
as §1, §2, §3, §4
as §5, with “After adherent growth for 12 hours, 50 µM of the test compound was added.” left out

The test system of the next assay is COL1A2. Put plainly: In vitro efficacy in semi-activated LX2 cells, qPCR: COL1A2. Particulars: Homo sapiens, LX-2, 48 hours, Q-PCR, read-out: COL1A2 mRNA inhibition rate. The protocol: as §1, §2, §3, §4, §5
Another assay deals with COL3A1. Nature of the assay: In vitro efficacy in semi-activated LX2 cells, qPCR: COL3A1. The conditions noted are these: 48 hours, Q-PCR; for inhibition at 50 µM: Homo sapiens, LX-2, 50 µM, read-out: COL3A1 mRNA inhibition rate. The protocol: as §1, §2, §3, §4
as §5, with “After adherent growth for 12 hours, 50 µM of the test compound was added.” left out

The subject of a further assay is IL-1β. Put plainly: In vitro efficacy in semi-activated LX2 cells, qPCR: IL-1β. The conditions noted are these: 48 hours, Q-PCR; for inhibition at 50 µM: Homo sapiens, LX-2, 50 µM, read-out: IL-1β mRNA inhibition rate. As for the experimental part: as §1, §2, §3, §4
as §5, with “After adherent growth for 12 hours, 50 µM of the test compound was added.” left out

The test system of the next assay is COL1A1. Put plainly: In vitro efficacy in semi-activated LX2 cells, qPCR: COL1A1. The conditions noted are these: 48 hours, Q-PCR; for inhibition at 50 µM: Homo sapiens, LX-2, 50 µM, read-out: COL1A1 mRNA inhibition rate. The protocol: as §1, §2, §3, §4
as §5, with “After adherent growth for 12 hours, 50 µM of the test compound was added.” left out

A further assay has as its system α-SMA. Nature of the assay: In vitro efficacy in semi-activated LX2 cells, qPCR: α-SMA. The conditions noted are these: 48 hours, Q-PCR; for inhibition at 50 µM: read-out: α-SMA mRNA inhibition rate; for inhibition of the expression of α-SMA at the mRNA level: Table 2. As for the experimental part:
as §1, §2, §3, §4
as §5, with “After adherent growth for 12 hours, 50 µM of the test compound was added.” left out

Consider 15 molecules from US20250025438A1, “Derivative of aspartic acid and use thereof in treatment of metabolic diseases such as hepatic fibrosis and non-alcoholic hepatitis” (SHENZHEN JINGTAI TECHNOLOGY CO., LTD., priority 2021, published 2025).

Where a name gives a salt, the structure may show the parent alone. Where a SMILES comes first, the peptide text is derived from it.

As to `O=C(O)C[C@H](NC(=O)OCc1ccccc1)C(=O)O` [Compound 2], the inhibition – broadly, the change of the read-out against control, counted positive when it falls – at 50 µM was 10 to 25% with TNF-α; 1 to 10% in the assay with Smad3; 1 to 10% in the assay with COL1A2; 10 to 25% with COL3A1; 1 to 10% in the assay with IL-1β; 25 to 50% in the assay with COL1A1. Besides, the inhibition at 50 µM in the assay with α-SMA lay in the range of 1 to 10%. For the same molecule, in assay [1], the “inhibition of the expression of collagen I and collagen III at the mRNA level” value is recorded as “could inhibit”.
In the case of `C=CCOC(=O)[C@H](CC(=O)O)NC(=O)OCC1c2ccccc2-c2ccccc21` [Compound 10], the inhibition at 50 µM was in the range of 10 to 25% in the assay on TNF-α; 1 to 10% with Smad3; 1 to 10% in the assay on COL1A2; 10 to 25% in the assay on COL3A1; 1 to 10% in the assay with IL-1β; 1 to 10% with COL1A1. The inhibition at 50 µM with α-SMA fell in the range of 1 to 10%. In addition, the “inhibition of the expression of collagen I and collagen III at the mRNA level” value in assay [1] is listed as “could inhibit”.
For the molecule `CC(C)(C)OC(=O)C[C@H](N)C(=O)O` [Compound 13], the inhibition at 50 µM in the assay with TNF-α, in the assay on COL1A2, in the assay on IL-1β and with α-SMA was 1 to 10% throughout.
For the molecule `CC(C)(C)OC(=O)C[C@H](NC(=O)OCC1c2ccccc2-c2ccccc21)C(=O)O` [Compound 18], the “inhibition of the expression of collagen I and collagen III at the mRNA level” value in assay [1] is “could inhibit”. Moreover, the inhibition at 50 µM in the assay on COL1A2 was 1 to 10%; in the assay on COL3A1, 1 to 10%; with COL1A1, 10 to 25%.
For the molecule `CN(C(=O)OCC1c2ccccc2-c2ccccc21)[C@@H](CC(=O)OC(C)(C)C)C(=O)O` [Compound 19], the “inhibition of the expression of collagen I and collagen III at the mRNA level” value in assay [1] is “could inhibit”. Besides, the inhibition at 50 µM in the assay on COL1A2, with COL3A1 and in the assay with COL1A1 was 10 to 25% in each case.
On to `N[C@@H](CC(=O)OC1CCCCC1)C(=O)O` [Compound 23], for which the inhibition at 50 µM with TNF-α, in the assay with Smad3, in the assay with COL1A2, in the assay with COL3A1, in the assay on IL-1β and in the assay on COL1A1 was 1 to 10% throughout.
For `NCC(=O)N[C@@H](CC(=O)O)C(=O)O` [Compound 28] (H-Gly-Asp-OH), the inhibition at 50 µM in the assay on TNF-α fell in the range of 1 to 10%; in the assay on Smad3, 10 to 25%; in the assay on COL1A2, 1 to 10%; with COL3A1, 10 to 25%; with IL-1β, 10 to 25%; in the assay with COL1A1 it was 10 to 25%. Moreover, the inhibition at 50 µM in the assay on α-SMA was in the range of 10 to 25%. In addition, the “inhibition of the expression of collagen I and collagen III at the mRNA level” value in assay [1] is “could inhibit”. Further, the “inhibition of the expression of Smad3 at the mRNA level” value with Smad3 (Table 2) is “could inhibit”. In addition, in the assay with α-SMA, the “inhibition of the expression of α-SMA at the mRNA level” value (“inhibition of the expression of α-SMA” below) is on record as “could inhibit”.
With `O=CN[C@@H](CC(=O)O)C(=O)O` [Compound 29], the inhibition at 50 µM in the assay with COL1A2, in the assay on COL1A1 and with α-SMA was 1 to 10% throughout.
Turning to `CC(=O)N[C@@H](CC(=O)O)C(=O)O` [Compound 30], in assay [1], the “inhibition of the expression of collagen I and collagen III at the mRNA level” value was “could inhibit”. Further, the inhibition at 50 µM in the assay with COL1A2 was 1 to 10%; in the assay with IL-1β it was 10 to 25%; with COL1A1, 25 to 50%; in the assay with α-SMA it was 1 to 10%.
As to `CNC(=O)C[C@H](N)C(=O)O` [Compound 33], the “inhibition of the expression of collagen I and collagen III at the mRNA level” value in assay [1] was “could inhibit”. Further, the inhibition at 50 µM with Smad3 is 1 to 10%; in the assay on COL1A2 it was 1 to 10%; with COL3A1, 1 to 10%; in the assay on IL-1β, 1 to 10%; in the assay with COL1A1 it was 25 to 50%; with α-SMA, 25 to 50%. The “inhibition of the expression of α-SMA” value in the assay with α-SMA is “could inhibit”.
Regarding `N[C@@H](CC(=O)O)C(=O)N[C@@H](Cc1ccccc1)C(=O)O` [Compound 39] (H-Asp-Phe-OH), the inhibition at 50 µM with TNF-α, in the assay with COL1A2 and in the assay with COL3A1 was 1 to 10% in each case.
For `CC(C)(C)OC(=O)[C@@H](N)CC(=O)OCc1ccccc1.Cl` [Compound 42], the “TNF-α mRNA inhibition rate” value in the assay on TNF-α (50 µM, 48 hours) is “D (D represented that the inhibition rate was 10% to 25%)”. Further, in assay [1], the “inhibition of the expression of collagen I and collagen III at the mRNA level” value is listed as “could inhibit”. The “Smad3 mRNA inhibition rate” value with Smad3 (50 µM) is “E (E represented that the inhibition rate was 1% to 10%)”. In the assay on COL3A1 (50 µM), the “COL3A1 mRNA inhibition rate” value is given as “E (E represented that the inhibition rate was 1% to 10%)”. For the same molecule, in the assay on IL-1β (50 µM), the “IL-1β mRNA inhibition rate” value is listed as “E (E represented that the inhibition rate was 1% to 10%)”. Besides, the “COL1A1 mRNA inhibition rate” value with COL1A1 (50 µM) was “C (C represented that the inhibition rate was 25% to 50%)”.
As to `CC(C)OC(=O)OCOC(=O)[C@H](Cc1ccccc1)NC(=O)[C@@H](N)CC(=O)O` [Compound 53, (S)-3-amino-4-(((S)-1-(((isopropoxycarbonyl)oxy)methoxy)-1-oxo-3-phenylpropan-2-yl)amino)-4-oxobutyric acid hydrochloride], in assay [1], the “inhibition of the expression of collagen I and collagen III at the mRNA level” value was “could inhibit”. Also, the inhibition at 50 µM in the assay on COL1A2 lay within 1 to 10%; in the assay with COL3A1, 10 to 25%; in the assay on COL1A1, 10 to 25%; in the assay with α-SMA it was 10 to 25%. The “inhibition of the expression of α-SMA” value in the assay with α-SMA is “could inhibit”.
Regarding `CCC(=O)N[C@@H](CC(=O)O)C(=O)O` [Compound 58, propionyl-L-aspartic acid], the inhibition at 50 µM in the assay on COL1A2, in the assay with COL3A1, with IL-1β and in the assay on α-SMA was 1 to 10% each time.
With `COC(=O)N[C@@H](CC(=O)O)C(=O)O` [Compound 61, (methoxycarbonyl)-L-aspartic acid], the inhibition at 50 µM lay in the range of 1 to 10% in the assay on TNF-α; 1 to 10% in the assay with Smad3; 1 to 10% in the assay on COL1A2; 1 to 10% with COL3A1; 1 to 10% with IL-1β; 25 to 50% in the assay on COL1A1. Further, the “inhibition of the expression of collagen I and collagen III at the mRNA level” value in assay [1] was “could inhibit”.
